Reference: patent US4698352A, “4-oxo-1,4-dihydronicotinic acid derivatives, salts thereof, and antibacterial agents containing the same” (Toyama Chemical Co., Ltd., priority 1982, dated 1987)
≈ marks a conversion by molar mass, not a printed value. Like-named read-outs stand apart in the source and are kept apart here.

Experiments:
Assay in all cases: Antibacterial activity (MIC), agar dilution
Format in all cases: cell-based
E. coli TK-3* = conditions: Escherichia coli, 20 h
Excerpt: (§1) The amount of bacteria inoculated was 10^4 cells per plate (10^6 cells per ml).
(§2) * Penicillinase-producing bacteria

St. aureus F-137* = conditions: Staphylococcus aureus, 20 h, St. aureus F-137, penicillinase-producing; 10^6 cells per ml; read-out: MIC
Excerpt: as §1, §2

Kl. pneumoniae Y-4* = conditions: Klebsiella pneumoniae, 20 h, Kl. pneumoniae Y-4, penicillinase-producing; 10^6 cells per ml; read-out: MIC
Excerpt: as §1, §2

Ps. aeruginosa GN3379* = conditions: Pseudomonas aeruginosa, 20 h; Ps. aeruginosa GN3379, penicillinase-producing; 10^6 cells per ml; read-out: MIC
Excerpt: as §1, §2

Pro. mirabilis T-111 = conditions: Proteus mirabilis, 37° C.
Excerpt: as §1

E. coli TK-111 = conditions: Escherichia coli, TK111, 20 h, E. coli TK-111; 10^6 cells per ml; 37° C., 20 hours; read-out: MIC
Excerpt: as §1

St. aureus FDA209P = conditions: Staphylococcus aureus, FDA209P, 20 h, St. aureus FDA209P; 10^6 cells per ml; 37° C., 20 hours; read-out: MIC
Excerpt: as §1

E. coli NIHJ JC-2 = conditions: Escherichia coli, NIHJJC2, 20 h, E. coli NIHJ JC-2; 10^6 cells per ml; 37° C., 20 hours; read-out: MIC
Excerpt: as §1

Kl. pneumoniae Y-50 = conditions: Klebsiella pneumoniae, Y50, 20 h, 10^6 cells per ml, 37° C., read-out: MIC
Excerpt: as §1

Pro. vulgaris GN3027 = conditions: Proteus vulgaris, GN3027, 20 h, Pro. vulgaris GN3027; 10^6 cells per ml; 37° C., 20 hours; read-out: MIC
Excerpt: as §1

Aci. antitratus A-6 = conditions: 20 h, Aci. antitratus A-6; 10^6 cells per ml; 37° C., 20 hours; read-out: MIC
Excerpt: as §1

Ent. cloacae IID977 = conditions: Enterobacter cloacae, IID977, 20 h
Excerpt: as §1

Pro. morganii T-216 = conditions: Morganella morganii, 37° C.
Excerpt: as §1

Ps. aeruginosa IFO3445 = conditions: Pseudomonas aeruginosa; Ps. aeruginosa IFO3445; 10^6 cells per ml; 37° C., 20 hours; read-out: MIC
Excerpt: as §1

Ps. aeruginosa S-68 = conditions: Pseudomonas aeruginosa, S68; Ps. aeruginosa S-68; 10^6 cells per ml; 37° C., 20 hours; read-out: MIC
Excerpt: as §1

Kl. pneumoniae Y-41 = conditions: Klebsiella pneumoniae, Y41, 10^6 cells per ml, 37° C., 20 hours, read-out: MIC
Excerpt: as §1

E. coli GN5482** = conditions: Escherichia coli, 20 h; E. coli GN5482, cephalospolinase-producing; 10^6 cells per ml; read-out: MIC
Excerpt: as §1
(§3) ** Cephalospolinase-producing bacteria

Pro. vulgaris GN76** = conditions: Proteus vulgaris
Excerpt: as §1, §3

Ps. aeruginosa GN918** = conditions: Pseudomonas aeruginosa, Ps. aeruginosa GN918, cephalospolinase-producing, 10^6 cells per ml
Excerpt: as §1, §3

[1] = E. coli TK-3, penicillinase-producing, 10^6 cells per ml, read-out: MIC
[2] = Ent. cloacae IID977, 10^6 cells per ml, 37° C., 20 hours, read-out: MIC
[3] = T216, 10^6 cells per ml, 20 hours, read-out: MIC

| SMILES | MIC (St. aureus F-137*) | MIC (Kl. pneumoniae Y-4*) | MIC (Ps. aeruginosa GN3379*) | MIC (Pro. mirabilis T-111; T111, 20 h, 10^6 cells per ml) | MIC (E. coli TK-111) | MIC (St. aureus FDA209P) | MIC (E. coli NIHJ JC-2) | MIC (Kl. pneumoniae Y-50) | MIC (Pro. vulgaris GN3027) | MIC (Aci. antitratus A-6) | MIC (Ps. aeruginosa IFO3445) | MIC (Ps. aeruginosa S-68) | MIC (Kl. pneumoniae Y-41) | MIC (E. coli GN5482**) | MIC (Pro. vulgaris GN76**; GN76, 20 h) | MIC (Ps. aeruginosa GN918**; GN918, 20 h) | MIC (E. coli TK-3*; [1]) | MIC (Ent. cloacae IID977; [2]) | MIC (Pro. morganii T-216; [3]) | other results |
| --- | --- | --- | --- | --- | --- | --- | --- | --- | --- | --- | --- | --- | --- | --- | --- | --- | --- | --- | --- | --- |
| Cc1nc(-c2ccc(-c3cc(=O)c(C(=O)O)cn3-c3ccc(F)cc3)cc2)cs1 | 0.2 µg/mL (≈ 0.492 µM) | 25 µg/mL (≈ 61.5 µM) | 25 µg/mL (≈ 61.5 µM) | 6.25 µg/mL (≈ 15.4 µM) | 0.39 µg/mL (≈ 0.96 µM) | 0.2 µg/mL (≈ 0.492 µM) | 1.56 µg/mL (≈ 3.84 µM) | 3.13 µg/mL (≈ 7.7 µM) | 1.56 µg/mL (≈ 3.84 µM) | 0.1 µg/mL (≈ 0.246 µM) | 25 µg/mL (≈ 61.5 µM) | 12.5 µg/mL (≈ 30.8 µM) | 6.25 µg/mL (≈ 15.4 µM) | 0.78 µg/mL (≈ 1.92 µM) | 3.13 µg/mL (≈ 7.7 µM) | 3.13 µg/mL (≈ 7.7 µM) | – | – | – | MIC (E. coli TK-3*): 3.13 µg/mL (≈ 7.7 µM); MIC (Ent. cloacae IID977): 6.25 µg/mL (≈ 15.4 µM); MIC (Pro. morganii T-216; T216, 20 h, 10^6 cells per ml): 3.13 µg/mL (≈ 7.7 µM) |
| CN(C)c1ccc(-c2cc(=O)c(C(=O)O)cn2-c2cccc3c(O)cccc23)cc1 | ≤ 0.05 µg/mL | 6.25 µg/mL (≈ 15.6 µM) | > 100 µg/mL | – | ≤ 0.05 µg/mL | 0.1 µg/mL (≈ 0.25 µM) | 0.39 µg/mL (≈ 0.974 µM) | 0.78 µg/mL (≈ 1.95 µM) | 1.56 µg/mL (≈ 3.9 µM) | 0.39 µg/mL (≈ 0.974 µM) | 12.5 µg/mL (≈ 31.2 µM) | 12.5 µg/mL (≈ 31.2 µM) | 6.25 µg/mL (≈ 15.6 µM) | ≤ 0.05 µg/mL | – | 6.25 µg/mL (≈ 15.6 µM) | 1.56 µg/mL (≈ 3.9 µM) | 1.56 µg/mL (≈ 3.9 µM) | 3.13 µg/mL (≈ 7.82 µM) | MIC (Pro. mirabilis T-111; T111, 10^6 cells per ml, 20 hours, read-out: MIC): 3.13 µg/mL (≈ 7.82 µM); MIC (Pro. vulgaris GN76**; 20 h, Pro. vulgaris GN76, cephalospolinase-producing, 10^6 cells per ml, read-out: MIC): 1.56 µg/mL (≈ 3.9 µM) |
| CN1CCOc2cc(-c3cc(=O)c(C(=O)O)cn3-c3ccc(O)cc3)ccc21 | 0.39 µg/mL (≈ 1.03 µM) | 3.13 µg/mL (≈ 8.27 µM) | 12.5 µg/mL (≈ 33 µM) | 3.13 µg/mL (≈ 8.27 µM) | 0.2 µg/mL (≈ 0.529 µM) | 0.39 µg/mL (≈ 1.03 µM) | 0.39 µg/mL (≈ 1.03 µM) | 0.78 µg/mL (≈ 2.06 µM) | 0.39 µg/mL (≈ 1.03 µM) | 0.78 µg/mL (≈ 2.06 µM) | 12.5 µg/mL (≈ 33 µM) | 6.25 µg/mL (≈ 16.5 µM) | 3.13 µg/mL (≈ 8.27 µM) | ≤ 0.05 µg/mL | 3.13 µg/mL (≈ 8.27 µM) | – | 0.78 µg/mL (≈ 2.06 µM) | 1.56 µg/mL (≈ 4.12 µM) | 1.56 µg/mL (≈ 4.12 µM) | MIC (Ps. aeruginosa GN918**; 20 h, read-out: MIC): 6.25 µg/mL (≈ 16.5 µM) |
